Source: publication PMC8071358, “Targeting of the Essential acpP, ftsZ, and rne Genes in Carbapenem-Resistant Acinetobacter baumannii by Antisense PNA Precision Antibacterials” (Biomedicines, 2021)

Key:
Type in all cases: cell-based, Acinetobacter baumannii
CRAB strain AC1 = experiment: BPP-PNA MIC, broth microdilution; conditions: MHB without cation (Oxoid); 37 °C, 18 h
Method in brief: (§1)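 Broth microdilution used an overnight culture diluted to about 5 × 10^5 CFU/mL in non-cation-adjusted Mueller Hinton Broth, mixed with 2-fold serial dilutions of BPP-PNA (16 to 0.5 µM in the dilution plate, not final). Plates were shaken at 37 °C for 18 h with OD595 read every 20 min.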

CRAB strain AC3 = experiment: BPP-PNA MIC, broth microdilution; conditions: MHB without cation (Oxoid); 37 °C, 18 h
Method in brief: as §1

CRAB strain AC4 = experiment: BPP-PNA MIC, broth microdilution; conditions: MHB without cation (Oxoid); 37 °C, 18 h
Method in brief: as §1

CRAB strain AC5 = experiment: BPP-PNA MIC, broth microdilution; conditions: MHB without cation (Oxoid); 37 °C, 18 h
Method in brief: as §1

CRAB strain AC6 = experiment: BPP-PNA MIC, broth microdilution; conditions: MHB without cation (Oxoid); 37 °C, 18 h
Method in brief: as §1

CRAB strain AC7 = experiment: BPP-PNA MIC, broth microdilution; conditions: MHB without cation (Oxoid); 37 °C, 18 h
Method in brief: as §1

CRAB strain AC8 = experiment: BPP-PNA MIC, broth microdilution; conditions: MHB without cation (Oxoid); 37 °C, 18 h
Method in brief: as §1

CRAB strain AC9 = experiment: BPP-PNA MIC, broth microdilution; conditions: MHB without cation (Oxoid); 37 °C, 18 h
Method in brief: as §1

[1] = test system: ftsZ mRNA in CRAB AC44 strain; experiment: Real-time RT-PCR of target mRNA; conditions: AC44, 1 h after treatment, normalised to 16S rRNA, against untreated control
Method: (§2) Real time RT-PCR was used to determine the relative expression level of the target gene upon treatment with match BPP-PNA compared to mismatch and untreated controls. The primers for q-PCR were designed to match conserved gene sequences using the AlleleID7 software (Premier Biosoft, San Francisco, CA, USA) (Table S6). Additionally, for more accurate expression of the genes at treatment and untreated conditions, the efficacy of target gene and internal controls primers was calculated by using three consecutive dilutions of the sample cDNA and drawing a standard curve through the slope of the line. […] Statistical analysis was carried out on the gene expression levels normalized to the chosen reference gene (16S rRNA) through −∆Ct analysis. The relative expression of each gene was determined by the 2^−ΔΔCT method. We used the GenEx standard (NormFinder and GeNorm) software (bioMCC, Germany) for analyzing the data.
(§3) An overnight culture of bacteria was diluted 1:100 in MHB medium and was grown with shaking (160 rpm) at 37 °C to reach the OD595 = 0.2. Then, the bacterial culture was treated with different concentrations of BPP-PNA for 1 h and the bacterial cells were harvested by centrifugation and the cell pellet used for RNA extraction.
(§4) Total RNA was isolated using the GeneJET RNA purification kit (ThermoFisher Scientific, Roskilde, Denmark) following the manufacturer’s protocol. RNA samples were treated with DNase for 30 min at 37 °C (Turbo DNA-free kit Ambion/Applied Biosystems, Carlsbad, CA, USA) and then incubated at 72 °C for 5 min to inactivate the DNase. The genomic DNA (gDNA) contamination was checked by polymerase chain reaction (PCR). RNA concentrations were determined by Nanodrop spectrophotometry at 260 nm and purity was checked by determining the absorption ratios at 260/280 nm. Total RNA (0.5 μg) was reverse-transcribed to yield cDNA as template for real-time quantitative PCR using the Quanti Tect reverse transcription kit (Qiagen, Copenhagen, Denmark). The cDNA was diluted 1:50 and used as a template in the reaction. […]

[2] = test system: acpP mRNA in CRAB AC44 strain; experiment: Real-time RT-PCR of target mRNA; conditions: AC44, 1 h treatment, normalised to 16S rRNA, against untreated control
Method: as §2, §3, §4

Substance	MIC, AC1 (CRAB strain AC1)	MIC, AC3 (CRAB strain AC3)	MIC, AC4 (CRAB strain AC4)	MIC, AC5 (CRAB strain AC5)	MIC, AC6 (CRAB strain AC6)	MIC, AC7 (CRAB strain AC7)	MIC, AC8 (CRAB strain AC8)	MIC, AC9 (CRAB strain AC9)	reduction in ftsZ mRNA [1]	reduction in the level of the acpP mRNA [2]
H-(KFF)3K-eg1-GAGGCCATGAC-NH2 (antisense; N-terminal (KFF)3K-eg1 peptide, C-terminal amide, backbone not given here, further chemistry not given here) [PNA 5612, anti-ftsZ peptide-PNA conjugate, match, −3 to +8]	4 µM	4 µM	8 µM	4 µM	4 µM	4 µM	8 µM	2 µM	up to 60%	–
H-(KFF)3K-eg1-TGATTTGCCAC-NH2 (antisense; N-terminal (KFF)3K-eg1 peptide, C-terminal amide, backbone not given here, further chemistry not given here) [PNA 5639, anti-acpP peptide-PNA conjugate, match, +1 to +11]	–	–	–	–	–	–	–	–	–	> 34 fold
